Reference: patent publication US7485633B2, “Cyclopropyl fused indolobenzazepine HCV NS5B inhibitors” (Bristol-Myers Squibb Company, priority 2005, dated 2009)
Read-outs that look alike come from different tables or passages of the source.

Key:
HCV replicon cells = assay: HCV replicon FRET assay; assay type: cell-based; conditions: Hepatitis C virus
From the text: FRET Assay Preparation. To perform the HCV FRET screening assay, 96-well cell culture plates were used. The FRET peptide (Anaspec, Inc.) (Taliani et al., Anal. Biochem. 1996, 240, 60-67) contains a fluorescence donor, EDANS, near one end of the peptide and an acceptor, DABCYL, near the other end. The fluorescence of the peptide is quenched by […] resonance energy transfer (RET) between the donor and the acceptor, but as the NS3 protease cleaves the peptide the products are released from RET quenching and the fluorescence of the donor becomes apparent. The assay reagent was made as follows: 5× cell Luciferase cell culture lysis reagent from Promega (#E153A) diluted to 1× with dH2O, NaCl added to 150 mM final, the FRET peptide diluted to 20 uM final from a 2 mM stock.
To prepare plates, HCV replicon cells, with or without a Renilla luciferase reporter gene, were trypsinized and placed into each well of a 96-well plate with titrated test compounds added in columns 3 through 12; columns 1 and 2 contained a control compound (HCV protease inhibitor), and the bottom row contained cells without compound. The plates were then placed in a CO2 incubator at 37° C.
Assays. Subsequent to addition of the test compounds described above (FRET Assay Preparation), at various times the plate was removed and Alamar blue solution (Trek Diagnostics, #00-100) was added per well as a measure of cellular toxicity. After reading in a Cytoflour 4000 instrument (PE Biosystems), plates were rinsed with PBS and then used for FRET assay by the addition of 30 ul of the FRET peptide assay reagent described above (FRET Assay Preparation) per well. The plate was then placed into the Cytoflour 4000 instrument which had been set to 340 excite/490 emission, automatic mode for 20 cycles and the plate read in a kinetic mode. Typically, the signal to noise using an endpoint analysis after the reads was at least three-fold. Alternatively, after Alamar blue reading, plates were rinsed with PBS, 50 ul of DMEM (high glucose) without phenol red was added and plates were then used for luciferase assay using the Promega Dual-Glo Luciferase Assay System.
Compound analysis was determined by quantification of the relative HCV replicon inhibition and the relative cytotoxicity values. To calculate cytoxicity values, the average Alamar Blue fluorescence signals from the control wells were set as 100% non-toxic. The individual signals in each of the compound test wells were then divided by the average control signal and multiplied by 100% to determine […]. To calculate the HCV replicon inhibition values, an average background value was obtained from the two wells containing the highest amount of HCV protease inhibitor at the end of the assay period. These numbers were similar to those obtained from naïve Huh-7 cells.
The background numbers were then subtracted from the average signal obtained from the control wells and this number was used as 100% activity. The individual signals in each of the compound test wells were then divided by the averaged control values after background subtraction and multiplied by 100% to determine percent activity. EC50 values for a protease inhibitor titration were calculated as the concentration which caused a 50% reduction in FRET or luciferase activity. The two numbers generated for the compound plate, percent cytoxicity and percent activity were used to determine compounds of interest for further analysis.

HCV = HCV patients, combination therapy; cited from earlier work
[1] = HCV replicon cells, FRET assay, read-out: EC50

| Compound | EC50 (HCV replicon cells; [1]) | further results |
| --- | --- | --- |
| O=C(O)c1ccc2c(C3CCCCC3)c3n(c2c1)C[C@]1(C(=O)N2CCOCC2)C[C@@H]1c1ccccc1-3 (single isomer, unassigned) | – | EC50 (HCV replicon cells): 20 to 1000 nM |
| COC[C@H]1CN(C(=O)C23CC2c2cc(OC)ccc2-c2c(C4CCCCC4)c4ccc(C(=O)NS(=O)(=O)N(C)C)cc4n2C3)CCO1 (some centres unmarked) | – | EC50 (HCV replicon cells): 20 to 1000 nM |
| C=Cc1ccc2c(c1)C1CC1(C(=O)N1CCOCC1)Cn1c-2c(C2CCCCC2)c2ccc(C(=O)O)cc21 (centres unmarked) | 20 to 1000 nM | – |
| CCN(CC)C(=O)CN(C)C(=O)C12CC1c1cc(OC)ccc1-c1c(C3CCCCC3)c3ccc(C(=O)NS(=O)(=O)N(C)C)cc3n1C2 (centres unmarked) | 20 to 1000 nM | – |
| CCc1ccc2c(c1)C1CC1(C(=O)N1CCOCC1)Cn1c-2c(C2CCCCC2)c2ccc(C(=O)NS(=O)(=O)N(C)C)cc21 (centres unmarked) | 20 to 1000 nM | – |
| CC(C)Oc1ccc2c(c1)C1CC1(C(=O)N1CCOCC1)Cn1c-2c(C2CCCCC2)c2ccc(C(=O)NS(=O)(=O)N(C)C)cc21 (centres unmarked) | 20 to 1000 nM | – |
| COc1ccc2c(c1OCc1ccccc1)C1CC1(C(=O)O)Cn1c-2c(C2CCCCC2)c2ccc(C(=O)NS(=O)(=O)N(C)C)cc21 (centres unmarked) | > 1000 nM | – |
| O=C(O)c1ccc2c(C3CCCCC3)c3n(c2c1)C[C@@]1(C(=O)N2CCOCC2)C[C@H]1c1ccccc1-3 (single isomer, unassigned) | – | EC50 (HCV replicon cells): 20 to 1000 nM |
| COC(=O)c1ccc2c(C3CCCCC3)c3n(c2c1)CC1(C(=O)N2CCOCC2)CC1c1cc(OC(C)C)ccc1-3 (centres unmarked) | 20 to 1000 nM | – |
| COc1ccc2c(c1)[C@@H]1C[C@]1(C(=O)N1CCCC[C@H]1CN(C)C)Cn1c-2c(C2CCCCC2)c2ccc(C(=O)NS(=O)(=O)N(C)C)cc21 | 97 to 1000 nM | – |
| COc1ccc2c(c1)C1C[C@@]1(C(=O)O)Cn1c-2c(C2CCCCC2)c2ccc(C(=O)NS(=O)(=O)N(C)C)cc21 (single isomer, unassigned) | 1000 to 10000 nM | – |
| C[C@@H]1CN(C(=O)C23CC2c2cc(O)ccc2-c2c(C4CCCCC4)c4ccc(C(=O)NS(=O)(=O)N(C)C)cc4n2C3)C[C@H](C)O1 (some centres unmarked) | 20 to 1000 nM | – |
| CC(C)Oc1ccc2c(c1)C1CC1(C(=O)N1CCOCC1)Cn1c-2c(C2CCCCC2)c2ccc(C(=O)O)cc21 (centres unmarked) | 20 to 1000 nM | – |
| COc1ccc2c(c1)C1CC1(C(=O)N1CCOCC1)Cn1c-2c(C2CCCCC2)c2ccc(C(=O)O)cc21 (centres unmarked) | 20 to 1000 nM | – |
| CN(C)S(=O)(=O)NC(=O)c1ccc2c(C3CCCCC3)c3n(c2c1)C[C@]1(C(=O)N2CCOCC2)C[C@@H]1c1ccccc1-3 (single isomer, unassigned) | – | EC50 (HCV replicon cells): 20 to 1000 nM |
| COc1ccc2c(c1)[C@@H]1C[C@]1(C(=O)N1CCCC[C@@H]1CN(C)C)Cn1c-2c(C2CCCCC2)c2ccc(C(=O)NS(=O)(=O)N(C)C)cc21 | 97 to 1000 nM | – |
| CCOc1ccc2c(c1)C1CC1(C(=O)N1CCOCC1)Cn1c-2c(C2CCCCC2)c2ccc(C(=O)NS(=O)(=O)N(C)C)cc21 (centres unmarked) | 20 to 1000 nM | – |
| COC[C@@H]1CN(C(=O)C23CC2c2cc(OC)ccc2-c2c(C4CCCCC4)c4ccc(C(=O)NS(=O)(=O)N(C)C)cc4n2C3)CCO1 (some centres unmarked) [listing 1 of 2 here] | – | EC50 (HCV replicon cells): 97 to 1000 nM |
| COc1ccc2c(c1)C1CC1(C(=O)N1CCOCC1)Cn1c-2c(C2CCCCC2)c2ccc(C(=O)NS(=O)(=O)C3CC3)cc21 (centres unmarked) | 20 to 1000 nM | – |
| COc1ccc2c(c1)C1CC1(C(=O)N1C[C@@H](C)O[C@@H](C)C1)Cn1c-2c(C2CCCCC2)c2ccc(C(=O)NS(C)(=O)=O)cc21 (some centres unmarked) | 97 to 1000 nM | – |
| CCN(C)CCN(C)C(=O)C12CC1c1cc(OC)ccc1-c1c(C3CCCCC3)c3ccc(C(=O)NS(=O)(=O)N(C)C)cc3n1C2 (centres unmarked) | 97 to 1000 nM | – |
| alpha-interferon and ribavirin | – | sustained efficacy (HCV): 40 % of patients |
| COC[C@@H]1CN(C(=O)C23CC2c2cc(OC)ccc2-c2c(C4CCCCC4)c4ccc(C(=O)NS(=O)(=O)N(C)C)cc4n2C3)CCO1 (some centres unmarked) [listing 2 of 2 here] | – | EC50 (HCV replicon cells): 20 to 1000 nM |
| O=C(O)c1ccc2c(C3CCCCC3)c3n(c2c1)CC1(C(=O)N2CCOCC2)CC1c1ccccc1-3 (centres unmarked) | – | EC50 (HCV replicon cells): 20 to 1000 nM |
| COC(=O)c1ccc2c(C3CCCCC3)c3n(c2c1)CC1(C(=O)N2CCOCC2)CC1c1ccccc1-3 (centres unmarked) | 20 to 1000 nM | – |

| Compound | EC50 (HCV replicon cells; [1]) | further results |
| --- | --- | --- |
| COc1ccc2c(c1)C1CC1(C(=O)N1CCOC(CN(C)C)C1)Cn1c-2c(C2CCCCC2)c2ccc(C(=O)NS(=O)(=O)C3CC3)cc21 (centres unmarked) | 20 to 1000 nM | – |
| COC(=O)c1ccc2c(C3CCCCC3)c3n(c2c1)CC1(C(=O)OC)CC1c1cc(OC)ccc1-3 (centres unmarked) | – | EC50 (HCV replicon cells): 20 to 1000 nM |
| CCN(CC)C1CCN(C(=O)C23CC2c2cc(OC)ccc2-c2c(C4CCCCC4)c4ccc(C(=O)NS(=O)(=O)N(C)C)cc4n2C3)CC1 (centres unmarked) | 20 to 1000 nM | – |
| COc1ccc2c(c1)C1CC1(C(=O)N1C[C@@H](C)O[C@@H](C)C1)Cn1c-2c(C2CCCCC2)c2ccc(C(=O)NS(=O)(=O)N(C)C)cc21 (some centres unmarked) | – | EC50 (HCV replicon cells): 20 to 1000 nM |
| COC(=O)C12CC1c1cc(OC)ccc1-c1c(C3CCCCC3)c3ccc(C(=O)O)cc3n1C2 (centres unmarked) | – | EC50 (HCV replicon cells): 1000 to 10000 nM |
| COc1ccc2c(c1)C1CC1(C(=O)N1CCC(N3CCOCC3)CC1)Cn1c-2c(C2CCCCC2)c2ccc(C(=O)NS(=O)(=O)C3CC3)cc21 (centres unmarked) | 20 to 1000 nM | – |
| COC(=O)C12CC1c1cc(OC)ccc1-c1c(C3CCCCC3)c3ccc(C(=O)OC(C)(C)C)cc3n1C2 (centres unmarked) | > 10000 nM | – |
| CCc1ccc2c(c1)C1CC1(C(=O)N1CCOCC1)Cn1c-2c(C2CCCCC2)c2ccc(C(=O)O)cc21 (centres unmarked) | 20 to 1000 nM | – |
| COc1ccc2c(c1)C1CC1(C(=O)N1C[C@@H](C)O[C@@H](C)C1)Cn1c-2c(C2CCCCC2)c2ccc(C(=O)O)cc21 (some centres unmarked) | 20 to 1000 nM | – |
| C[C@@H]1CN(C(=O)C23CC2c2cc(OCc4ccccc4)ccc2-c2c(C4CCCCC4)c4ccc(C(=O)NS(=O)(=O)N(C)C)cc4n2C3)C[C@H](C)O1 (some centres unmarked) | 20 to 1000 nM | – |
| COc1ccc2c(c1)C1CC1(C(=O)N(C)C)Cn1c-2c(C2CCCCC2)c2ccc(C(=O)NS(=O)(=O)N(C)C)cc21 (centres unmarked) | 20 to 1000 nM | – |
| COc1ccc2c(c1)C1CC1(C(=O)N1CCOCC1)Cn1c-2c(C2CCCCC2)c2ccc(C(=O)NS(=O)(=O)N3CCN(C)CC3)cc21 (centres unmarked) | 20 to 1000 nM | – |
| CCOc1ccc2c(c1)C1CC1(C(=O)N1CCOCC1)Cn1c-2c(C2CCCCC2)c2ccc(C(=O)O)cc21 (centres unmarked) | 20 to 1000 nM | – |
| COc1ccc2c(c1)C1CC1(C(=O)N1C[C@@H](C)N[C@@H](C)C1)Cn1c-2c(C2CCCCC2)c2ccc(C(=O)NS(=O)(=O)N(C)C)cc21 (some centres unmarked) | – | EC50 (HCV replicon cells): 20 to 1000 nM |
| COc1ccc2c(c1)C1CC1(C(=O)N1CCOCC1)Cn1c-2c(C2CCCCC2)c2ccc(C(=O)NS(=O)(=O)N(C)C)cc21 (centres unmarked) | – | EC50 (HCV replicon cells): 20 to 1000 nM |
| CN(C)S(=O)(=O)NC(=O)c1ccc2c(C3CCCCC3)c3n(c2c1)CC1(C(=O)N2CCOCC2)CC1c1cc(O)ccc1-3 (centres unmarked) | 20 to 1000 nM | – |
| CN(C)S(=O)(=O)NC(=O)c1ccc2c(C3CCCCC3)c3n(c2c1)C[C@@]1(C(=O)N2CCOCC2)C[C@H]1c1ccccc1-3 (single isomer, unassigned) | – | EC50 (HCV replicon cells): 20 to 1000 nM |
| COc1ccc2c(c1)C1CC1(C(=O)N1CCC(N3CCOCC3)CC1)Cn1c-2c(C2CCCCC2)c2ccc(C(=O)O)cc21 (centres unmarked) | 20 to 1000 nM | – |
| COc1ccc2c(c1)C1C[C@]1(C(=O)N[C@@H]1C3CCC(C)([C@@H]1O)C3(C)C)Cn1c-2c(C2CCCCC2)c2ccc(C(=O)NS(=O)(=O)N(C)C)cc21 (some centres unmarked) | 20 to 1000 nM | – |
| COc1ccc2c(c1)C1CC1(C(=O)N1CCOCC1)Cn1c-2c(C2CCCCC2)c2ccc(C(=O)NS(=O)(=O)N3CCOCC3)cc21 (centres unmarked) | 20 to 1000 nM | – |
| CN(C)S(=O)(=O)NC(=O)c1ccc2c(C3CCCCC3)c3n(c2c1)CC1(C(=O)N2CCOCC2)CC1c1ccccc1-3 (centres unmarked) | – | EC50 (HCV replicon cells): 20 to 1000 nM |
| Cc1ccc2c(c1)C1CC1(C(=O)N1CCOCC1)Cn1c-2c(C2CCCCC2)c2ccc(C(=O)O)cc21 (centres unmarked) | 20 to 1000 nM | – |
| COC(=O)C12CC1c1cc(O)ccc1-c1c(C3CCCCC3)c3ccc(C(=O)NS(=O)(=O)N(C)C)cc3n1C2 (centres unmarked) | 20 to 1000 nM | – |
| CC(C)c1ccc2c(c1)C1CC1(C(=O)N1CCOCC1)Cn1c-2c(C2CCCCC2)c2ccc(C(=O)O)cc21 (centres unmarked) | 20 to 1000 nM | – |
| COc1ccc2c(c1)C1C[C@]1(C(=O)O)Cn1c-2c(C2CCCCC2)c2ccc(C(=O)NS(=O)(=O)N(C)C)cc21 (some centres unmarked) | 1000 to 10000 nM | – |
